Test results: ChEMBL document CHEMBL3352494, “New guaiane sesquiterpenes from Artemisia rupestris and their inhibitory effects on nitric oxide production” (Bioorg Med Chem Lett, 2014)
pIC50: −log10 of the molar value.

Experiments:
RAW264.7 [1] = test: Cytotoxicity against mouse RAW264.7 cells at 0.01 to 100 uM after 24 hrs by MTT assay; type: cell-based; conditions: raw264.7, 24 h
RAW264.7 [2] = test: Inhibition of NO production in LPS-stimulated mouse RAW264.7 cells pre-incubated for 2 hrs before LPS stimulation for 24 hrs by Griess assay method; type: functional, cell-based

| Compound | Activity (RAW264.7 [1]) | pIC50 (RAW264.7 [2]) |
| --- | --- | --- |
| COc1ccc(-c2cc(=O)c3c(O)cc(O[C@@H]4O[C@H](CO[C@@H]5O[C@@H](C)[C@H](O)[C@@H](O)[C@H]5O)[C@@H](O)[C@H](O)[C@H]4O)cc3o2)cc1 [ACACIIN] | Non-toxic | 5.00 |
| COC(=O)[C@@]1(O)C[C@@H](O)[C@@H](OC(=O)/C=C/c2ccc(O)c(O)c2)[C@H](OC(=O)/C=C/c2ccc(O)c(O)c2)C1 | Non-toxic | 4.63 |
| COc1cc(-c2oc3cc(OC)c(OC)c(O)c3c(=O)c2O)ccc1O | Non-toxic | 5.32 |
| COc1ccc(-c2cc(=O)c3c(O)cc(O[C@@H]4O[C@H](CO)[C@@H](O)[C@H](O)[C@H]4O)cc3o2)cc1 [TILIANINE] | Non-toxic | 5.05 |
| COc1ccc(Oc2cc(=O)c3c(O)cc(O[C@@H]4O[C@H](CO)[C@@H](O)[C@H](O)[C@H]4O)cc3o2)cc1 | Non-toxic | 4.67 |
| C=C(C(=O)O[C@@H]1O[C@H](CO)[C@@H](O)[C@H](O)[C@H]1O)[C@@H]1CC[C@H](C)[C@@H]2CC(=O)C(C)=C2C1 | Non-toxic | 5.34 |
| COc1ccc(-c2cc(=O)c3c(O)cc(O[C@@H]4O[C@H](CO)[C@@H](O)[C@H](O)[C@H]4O)cc3o2)cc1OC | Non-toxic | 5.02 |
| C=C(C(=O)O)[C@@H]1CC[C@H](C)[C@@H]2CC(=O)C(C)=C2C1 [PECHUELOIC ACID] | Non-toxic | 5.52 |
| N=C(N)NN [PIMAGEDINE] |  | 6.64 |
| O=c1cc(-c2ccc(O)c(O)c2)oc2cc(O)cc(O)c12 [LUTEOLIN] | Non-toxic | 6.68 |
| O=C(/C=C/c1ccc(O)c(O)c1)O[C@@H]1[C@H](O)C[C@](O)(C(=O)O)C[C@H]1OC(=O)/C=C/c1ccc(O)c(O)c1 (relative stereo) | Non-toxic | 4.70 |
| COc1ccc(-c2cc(=O)c3c(O)c(OC)c(O)c(OC)c3o2)cc1 [NEVADENSIN] | Non-toxic | 5.29 |
| O=c1cc(-c2ccc(O)c(O)c2)oc2cc(O[C@@H]3O[C@H](CO)[C@@H](O)[C@H](O)[C@H]3O)cc(O)c12 [GALUTEOLIN] | Non-toxic | 5.08 |
| C=C(C(=O)O)[C@@H]1CC[C@H](C)[C@]2(O)CC(=O)C(C)=C2C1 | Non-toxic | 6.74 |
| C=C(C(=O)O)[C@@H]1CC[C@](C)(O)[C@@H]2CC(=O)C(C)=C2C1 | Non-toxic | 6.33 |
| COc1cc(-c2cc(=O)c3c(O)cc(O)cc3o2)ccc1O [CHRYSOERIOL] |  | 6.62 |
